Source: patent publication US20020137929A1, “1 - (3-heterocyclylphenyl) isothiourea, -isourea, -guanidine and -amidine herbicidal agents” (Intellectual Property Department, BASF Aktiengesellschaft, priority 1998, published 2002)

What was measured:
CASOB (Sicklepod) = test: Postemergence herbicidal evaluation; type: in vivo, Cassia obtusifolia; conditions: postemergence
Procedure, shortened: (§1)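 Each compound, dispersed in an acetone/water mix (50/50) carrying 0.5% TWEEN 20, is nozzle-sprayed at 40 psi on approximately two-week-old seedlings at about 0.0156–0.500 kg/ha. Plants are assessed 4–5 weeks afterward on a 0–9 scale relative to control; duplicate tests are averaged.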

CYPIR (Rice Flatsedge) = test: Preemergence weed control under flooded paddy conditions; type: in vivo, Cyperus iria; conditions: rated 3-4 weeks after treatment
Procedure, shortened: (§2)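 Seeds or propagules sown in top 0.5 cm of silt loam soil, flooded 1.5 to 3 cm above surface throughout. Compound in 50/50 v/v aqueous/acetone pipetted into flood water at about 0.0313 to 0.500 kg/ha. Visual 0-9 rating versus control after three to four weeks in greenhouse.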

ORYSAT (Rice, Tebonnet) = test: Preemergence herbicidal evaluation; type: in vivo, Oryza sativa, (L.) Tebonnet; conditions: rated 4-5 weeks after treatment, rating scale 0-9
Procedure, shortened: (§3)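 Scores (0–9) reflect visual comparison with control plants for stand, vigor, malformation, size and chlorosis. Compound was applied to the soil after sowing, before emergence, as an aqueous acetone spray (about 0.0156–0.500 kg/ha), and cups were kept in a greenhouse for 4–5 weeks.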

CYPSE (Flatsedge) = test: Preemergence weed control under flooded paddy conditions; type: in vivo, Cyperus serotinus; conditions: rated 3-4 weeks after treatment
Procedure, shortened: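 Ratings on a 0-9 visual scale cover stand, vigor, malformation, size, chlorosis and overall appearance relative to a control, taken three to four weeks post-treatment. Application was into flood water over freshly sown silt loam at roughly 0.0313 to 0.500 kg/ha.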

[1] = system: CHEAL (Lambsquarters, Common); test: Preemergence herbicidal evaluation; type: in vivo, Chenopodium album; conditions: rated 4-5 weeks after treatment, rating scale 0-9
Procedure, shortened: as §3

[2] = system: IPOHE (Morningglory, Ivyleaf); test: Preemergence herbicidal evaluation; type: in vivo, Ipomoea hederacea; conditions: rated 4-5 weeks after treatment, rating scale 0-9
Procedure, shortened: as §3

[3] = system: TRZAWR (Wheat, Winter, cv Riband); test: Preemergence herbicidal evaluation; type: in vivo, Triticum aestivum; conditions: rated 4-5 weeks after treatment, rating scale 0-9
Procedure, shortened: as §3

GALAP (Galium) = test: Postemergence herbicidal evaluation; type: in vivo, Galium aparine; conditions: postemergence
Procedure, shortened: as §1

[4] = system: ECHORC (Watergrass (Calif.)); test: Preemergence weed control under flooded paddy conditions; type: in vivo, Echinochloa oryzoides; conditions: rated 3-4 weeks after treatment
Procedure, shortened: as §2

AMBEL (Ragweed, Common) = test: Preemergence herbicidal evaluation; type: in vivo, Ambrosia artemisifolia; conditions: rated 4-5 weeks after treatment, rating scale 0-9
Procedure, shortened: as §3

ZEAMX (Corn, Field) [5] = test: Postemergence herbicidal evaluation; type: in vivo, Zea mays; conditions: postemergence
Procedure, shortened: as §1

ZEAMX (Corn, Field) [6] = test: Preemergence herbicidal evaluation; type: in vivo, Zea mays; conditions: rated 4-5 weeks after treatment, rating scale 0-9
Procedure, shortened: as §3

`COCCN1C(=O)CSC1=Nc1cc(-n2c(=O)cc(C(F)(F)F)n(C)c2=O)c(F)cc1Cl` [Compound 155, 3-{4-Chloro-2-fluoro-5-{[3-(2-methoxyethyl)-4-oxo-2-thiazolidinylidene]amino}phenyl}-1-methyl-6-(trifluoromethyl)-2,4(1H,3H)-pyrimidinedione] was tested, and the “herbicidal rating CASOB” value (CASOB (Sicklepod); rate 0.0156 kg/ha) was 0.0, the “herbicidal rating CASOB” value (CASOB (Sicklepod); rate 0.0313 kg/ha) was 0.0 and the “herbicidal rating CASOB” value (CASOB (Sicklepod); rate 0.0625 kg/ha) was 0.0. The “herbicidal effect rating, CYPIR” value (CYPIR (Rice Flatsedge); 0.0313 kg/ha) was 0.0, the “herbicidal effect rating, CYPIR” value (CYPIR (Rice Flatsedge); 0.0625 kg/ha) was 0.0 and the “herbicidal effect rating, CYPIR” value (CYPIR (Rice Flatsedge); 0.1250 kg/ha) was 0.0. The “herbicidal effect rating, CYPIR” value (CYPIR (Rice Flatsedge); 0.2500 kg/ha) was 0.0, the “Preemergence herbicidal rating ORYSAT” value (ORYSAT (Rice, Tebonnet); rate 0.0625 kg/ha) was 0.0 and the “Preemergence herbicidal rating ORYSAT” value (ORYSAT (Rice, Tebonnet); rate 0.1250 kg/ha) was 0.0. For the same molecule, the “Preemergence herbicidal rating ORYSAT” value (ORYSAT (Rice, Tebonnet); rate 0.2500 kg/ha) was 2.0, the “herbicidal effect rating, CYPSE” value (CYPSE (Flatsedge); 0.0313 kg/ha) was 0.0 and the “herbicidal effect rating, CYPSE” value (CYPSE (Flatsedge); 0.0625 kg/ha) was 0.0. For the same molecule, the “herbicidal effect rating, CYPSE” value (CYPSE (Flatsedge); 0.1250 kg/ha) was 0.0, the “Preemergence herbicidal rating CHEAL” value ([1]; rate 0.0625 kg/ha) was 0.0 and the “Preemergence herbicidal rating CHEAL” value ([1]; rate 0.1250 kg/ha) was 9.0. The “Preemergence herbicidal rating CHEAL” value ([1]; rate 0.2500 kg/ha) was 9.0, the “Preemergence herbicidal rating IPOHE” value ([2]; rate 0.0625 kg/ha) was 0.0 and the “Preemergence herbicidal rating IPOHE” value ([2]; rate 0.1250 kg/ha) was 0.0. For the same molecule, the “Preemergence herbicidal rating IPOHE” value ([2]; rate 0.2500 kg/ha) was 2.0, the “Preemergence herbicidal rating TRZAWR” value ([3]; rate 0.0625 kg/ha) was 0.0 and the “Preemergence herbicidal rating TRZAWR” value ([3]; rate 0.1250 kg/ha) was 0.0. The “Preemergence herbicidal rating TRZAWR” value ([3]; rate 0.2500 kg/ha) was 0.0, the “herbicidal rating GALAP” value (GALAP (Galium); rate 0.0156 kg/ha) was 0.0 and the “herbicidal rating GALAP” value (GALAP (Galium); rate 0.0313 kg/ha) was 0.0. For the same molecule, the “herbicidal rating GALAP” value (GALAP (Galium); rate 0.0625 kg/ha) was 0.0, the “herbicidal effect rating, ECHORC” value ([4]; 0.0313 kg/ha) was 4.0 and the “herbicidal effect rating, ECHORC” value ([4]; 0.0625 kg/ha) was 4.0. The “herbicidal effect rating, ECHORC” value ([4]; 0.1250 kg/ha) was 4.0, the “herbicidal effect rating, ECHORC” value ([4]; 0.2500 kg/ha) was 4.0 and the “Preemergence herbicidal rating AMBEL” value (AMBEL (Ragweed, Common); rate 0.0625 kg/ha) was 0.0. The “Preemergence herbicidal rating AMBEL” value (AMBEL (Ragweed, Common); rate 0.1250 kg/ha) was 2.0, the “Preemergence herbicidal rating AMBEL” value (AMBEL (Ragweed, Common); rate 0.2500 kg/ha) was 4.0 and the “herbicidal rating ZEAMX” value (ZEAMX (Corn, Field) [5]; rate 0.0156 kg/ha) was 4.0. The “herbicidal rating ZEAMX” value (ZEAMX (Corn, Field) [5]; rate 0.0313 kg/ha) was 4.0, the “herbicidal rating ZEAMX” value (ZEAMX (Corn, Field) [5]; rate 0.0625 kg/ha) was 4.0 and the “Preemergence herbicidal rating ZEAMX” value (ZEAMX (Corn, Field) [6]; rate 0.0625 kg/ha) was 0.0. For the same molecule, the “Preemergence herbicidal rating ZEAMX” value (ZEAMX (Corn, Field) [6]; rate 0.1250 kg/ha) was 0.0 and the “Preemergence herbicidal rating ZEAMX” value (ZEAMX (Corn, Field) [6]; rate 0.2500 kg/ha) was 2.0.
